Reference: PubChem BioAssay (NCI)
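All cell lines were grown in 96-well plates and treated with compound for 48 hours. TGI: total growth inhibition.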

Experiments:
Test in all cases: inhibition of tumour cell growth, NCI panel, 48 h
[1] = test system: NCI/ADR-RES ovarian
[2] = test system: HCT-15 colon
[3] = test system: SNB-75 CNS
[4] = test system: HOP-62 NSCLC
[5] = test system: MDA-MB-231 breast
[6] = test system: CAKI-1 renal
[7] = test system: HCC-2998 colon
[8] = test system: K-562 leukemia
[9] = test system: SF-295 CNS
[10] = test system: DU-145 prostate
[11] = test system: 786-0 renal
[12] = test system: SK-MEL-28 melanoma
[13] = test system: MCF7 breast
[14] = test system: HT29 colon
[15] = test system: UO-31 renal
[16] = test system: MALME-3M melanoma
[17] = test system: OVCAR-5 ovarian
[18] = test system: SF-539 CNS
[19] = test system: SW-620 colon
[20] = test system: TK-10 renal
[21] = test system: UACC-257 melanoma
[22] = test system: SK-MEL-2 melanoma
[23] = test system: HCT-116 colon
[24] = test system: SF-268 CNS
[25] = test system: EKVX NSCLC
[26] = test system: OVCAR-8 ovarian
[27] = test system: RPMI-8226 leukemia
[28] = test system: KM12 colon
[29] = test system: A549 NSCLC
[30] = test system: SN12C renal
[31] = test system: MDA-MB-435
[32] = test system: SK-MEL-5 melanoma
[33] = test system: HOP-92 NSCLC
[34] = test system: SNB-19 CNS
[35] = test system: A498 renal
[36] = test system: RXF 393 renal
[37] = test system: HL-60(TB) leukemia
[38] = test system: ACHN renal
[39] = test system: CCRF-CEM leukemia
[40] = test system: UACC-62 melanoma
[41] = test system: HS 578T breast
[42] = test system: OVCAR-3 ovarian
[43] = test system: NCI-H23 lung
[44] = test system: BT-549 breast
[45] = test system: LOX IMVI melanoma
[46] = test system: COLO 205 colon
[47] = test system: NCI-H460 lung
[48] = test system: SK-OV-3 ovarian
[49] = test system: PC-3 prostate
[50] = test system: U251 CNS
[51] = test system: MOLT-4 leukemia
[52] = test system: OVCAR-4 ovarian
[53] = test system: MDA-N
[54] = test system: NCI-H226 lung
[55] = test system: M14 melanoma
[56] = test system: IGROV1 ovarian
[57] = test system: SR leukemia
[58] = test system: NCI-H522 lung

CC(C)C(=O)OCC1CCCN2CCCCC12 (stereo unspecified)
TGI [1]: > 100 µM
TGI [2]: > 100 µM
TGI [3]: > 100 µM
TGI [4]: > 100 µM
TGI [5]: > 100 µM
TGI [6]: > 100 µM
TGI [7]: > 100 µM
TGI [8]: > 100 µM
TGI [9]: > 100 µM
TGI [10]: > 100 µM
TGI [11]: > 100 µM
TGI [12]: > 100 µM
TGI [13]: > 100 µM
TGI [14]: 97.6 µM
TGI [15]: > 100 µM
TGI [16]: > 100 µM
TGI [17]: > 100 µM
TGI [18]: > 100 µM
TGI [19]: > 100 µM
TGI [20]: > 100 µM
TGI [21]: > 100 µM
TGI [22]: > 100 µM
TGI [23]: > 100 µM
TGI [24]: > 100 µM
TGI [25]: > 100 µM
TGI [26]: > 100 µM
TGI [27]: > 100 µM
TGI [28]: > 100 µM
TGI [29]: > 100 µM
TGI [30]: > 100 µM
TGI [31]: > 100 µM
TGI [32]: > 100 µM
TGI [33]: > 100 µM
TGI [34]: > 100 µM
TGI [35]: > 100 µM
TGI [36]: > 100 µM
TGI [37]: > 100 µM
TGI [38]: > 100 µM
TGI [39]: > 100 µM
TGI [40]: > 100 µM
TGI [41]: > 100 µM
TGI [42]: > 100 µM
TGI [43]: > 100 µM
TGI [44]: > 100 µM
TGI [45]: > 100 µM
TGI [46]: > 100 µM
TGI [47]: > 100 µM
TGI [48]: > 100 µM
TGI [49]: > 100 µM
TGI [50]: > 100 µM
TGI [51]: > 100 µM
TGI [52]: > 100 µM
TGI [53]: > 100 µM
TGI [54]: > 100 µM
TGI [55]: > 100 µM

CS(=O)(=O)N1CC(CI)c2ccc(O)cc21 (stereo unspecified)
TGI [1]: 18 µM
TGI [56]: 29.3 µM
TGI [2]: 12.3 µM
TGI [3]: 6.02 µM
TGI [4]: 7.62 µM
TGI [57]: 7.33 µM
TGI [5]: 8.53 µM
TGI [6]: 12.9 µM
TGI [7]: 4.69 µM
TGI [8]: 24.2 µM
TGI [9]: 13.4 µM
TGI [10]: 9.36 µM
TGI [11]: 12.7 µM
TGI [12]: 14.3 µM
TGI [13]: 15.1 µM
TGI [14]: 15.9 µM
TGI [15]: 11.6 µM
TGI [16]: 4.43 µM
TGI [18]: 8.66 µM
TGI [20]: 7.3 µM
TGI [22]: 5.49 µM
TGI [23]: 12.6 µM
TGI [24]: 16.1 µM
TGI [25]: 14.4 µM
TGI [26]: 11.7 µM
TGI [27]: 19.1 µM
TGI [28]: 15 µM
TGI [29]: 17 µM
TGI [30]: 15.8 µM
TGI [58]: 2.99 µM
TGI [31]: 4.2 µM
TGI [32]: 3.26 µM
TGI [33]: 6.31 µM
TGI [35]: 7.46 µM
TGI [36]: 3.44 µM
TGI [37]: 6.09 µM
TGI [38]: 12.9 µM
TGI [39]: 17.4 µM
TGI [41]: > 100 µM
TGI [42]: 7.71 µM
TGI [43]: 5.32 µM
TGI [44]: 15.6 µM
TGI [45]: 17.2 µM
TGI [46]: 12.3 µM
TGI [47]: 10.9 µM
TGI [49]: 6.51 µM
TGI [50]: 10 µM
TGI [51]: 9.65 µM
TGI [52]: 5.95 µM
TGI [53]: 6.4 µM
TGI [54]: 10.7 µM
